Measurements as given in patent US9546129B2, “DTPA prodrugs, compositions thereof, and methods of using the same” (priority 2012, dated 2017).
Like-named read-outs stand apart in the source and are kept apart here.

How the values were obtained:
^241Am contaminated rats = assay: C2E2 single dose ^241Am decorporation in rats (IM contamination); type: in vivo, Sprague Dawley rat; conditions: for Cage Wash ^241Am / Feces ^241Am / Liver burden / Total Decorporation / Urine ^241Am: single dose 24 h after IM ^241Am, 7 days
Method: This study was to assess the efficacy of a single oral gavage dose of C2E2 in ^241Am contaminated rats. A 200 μL aliquot was withdrawn from a stock solution of ^241Am nitrate (0.1 mCi in 5 mL 1 M HNO3), evaporated to dryness, dissolved in concentrated HNO3 (15 M, 5 mL) then evaporated to dryness and dissolved in dilute HNO3 (0.1 M, 8 mL) to form the injection solution. Groups of 4 female Sprague-Dawley rats were contaminated with 250 nCi of ^241Am nitrate by IM injection ([…]) then were administered single doses of C2E2 by gavage at 200, 600, or 1000 mg/kg under ad lib feeding conditions utilizing a 10% w/w solution in sterile water (dose volumes were 2, 6, and 10 mL/kg, for the 200, 600, and 1000 mg/kg doses, respectively). For the fasted component of the study, the animals were fasted 24 hours before treatment then for 2 hours post drug administration. Control groups with ad lib access to food and water were either untreated or administered an IV dose of the calcium salt of DTPA (Ca-DTPA) at 14 mg/kg (target dose volume of 0.7 mL/kg and concentration of 20 mg/mL). Treatment was administered 1 day after contamination. All animals were euthanized 7 days after contamination and the following tissues were collected: liver, both kidneys, both femurs as well as the ipsilateral and the contralateral hind leg muscle tissue and the pelt from the injection site. Urine and feces were collected from the time of contamination through euthanasia. Cage washings were also collected at the end of the study and considered part of total urine collection. Two aliquots (100 μL) of the injection solution were removed and ^241Am gamma activity was determined using radiomatic detection. The average of these standards is the injected dose used for all animals. All tissues and samples were counted in a similar manner. Americium content was expressed as a percentage of the injected dose. Overall recovery of radioactivity across all groups in this study was approximately 90%. […] The primary route by which both DTPA and C2E2 enhanced elimination of ^241Am occurred was by urinary clearance. […] Fecal clearance of ^241Am was not altered by feeding status, an observation that is consistent with the similar liver burden between the two groups at the end of the study. […] As with DTPA, enhanced decorporation by C2E2 occurred through enhanced urinary clearance.
Male and female Sprague Dawley rats (n=4/gender/dose) were administered single oral doses of diethylenetriaminepentaacetic acid diethyl ester (C2E2) by gavage 24 hours after intramuscular contamination with ^241Am(NO3)3 (250 nCi) under ad libitum and fasted conditions. Animals received single oral nominal doses of 200, 600, or 1000 mg/kg C2E2. Untreated animals and animals treated with an intravenous dose of Ca-DTPA ([…]) 24 hours after contamination served as controls; only ad libitum conditions were used for control animals. Total radionuclide decorporation and radionuclide tissue burden were evaluated seven days after contamination.
Male and female Sprague Dawley rats were contaminated with ^241Am(NO3)3 (0.25 μCi) by intramuscular injection (0.1 mL, 0.1 M HNO3) into the right hind leg, under isoflurane anesthesia. Immediately after injection, body weights were recorded (Day 0 weight) and animals were placed in individual metabolic cages.
Approximately eight hours after contamination—and 16 hours before test article administration—rats assigned to the Fasted groups had access to food restricted by removing the food chamber from their metabolic cages and collecting all loose chow from their housing chambers. Food chambers were replaced 1 hour after oral gavage treatment, restoring access to food. At all other times all animals had ad libitum access to food.
Male and female Sprague-Dawley rats assigned to test groups each received a single oral gavage dose of 0, 200, 600, or 1000 mg/kg of C2E2 utilizing a 10% w/w solution in water 24 hours after contamination. […]

[1] = 10-day repeat-dose toxicity and toxicokinetics study in dogs; type: in vivo, Beagle dog; conditions: for AUC(0-t) / Cmax: plasma, po, 200 mg/kg/day, after 10 days of dosing; for AUC(0-t): read-out: C2E2 AUC0-24; for Cmax: read-out: Mean C2E2 Cmax
Method: An exploratory study was conducted to evaluate the toxicity and to determine the toxicokinetics of the test article, C2E2, when administered to dogs via 10 daily oral gavage doses. Groups of 2 Beagle dogs/sex were administered C2E2 via oral gavage at dose levels of 0, 60, 200, 400, or 600 mg/kg. The vehicle was reverse osmosis water and the dose volume was 8 mL/kg. Assessment of toxicity was based on mortality, clinical observations, body weight, food consumption, clinical pathology, gross pathology, organ weights, histopathology of selected tissues, and plasma essential trace elements analysis. Blood samples were collected on Days 1 and 10 for toxicokinetic evaluations of C2E2, C2E1, DTPA and C2E3. C2E3 is believed to be an impurity in the C2E2 lot used.

[2] = C2E2 200 mg/kg gavage, ad lib, female rats
[3] = C2E2 200 mg/kg gavage, fasted, female rats
[4] = C2E2 600 mg/kg gavage, ad lib, female rats
[5] = C2E2 600 mg/kg gavage, fasted, female rats
[6] = C2E2 1000 mg/kg gavage, ad lib, female rats
[7] = C2E2 1000 mg/kg gavage, fasted, female rats

SMILES: CCOC(=O)CN(CCN(CCN(CC(=O)O)CC(=O)OCC)CC(=O)O)CC(=O)O [C2E2, 6,9-bis(carboxymethyl)-3-(2-ethoxy-2-oxoethyl)-11-oxo-12-oxa-3,6,9-triazatetradecan-1-oic acid]
- Cage Wash ^241Am (^241Am contaminated rats; [2]): 1.8 ± 0.5%
- Feces ^241Am (^241Am contaminated rats; [2]): 5.9 ± 0.8%
- Liver burden (^241Am contaminated rats; [2]): 17.7 ± 2.1 % injected
- Total Decorporation (^241Am contaminated rats; [2]): 14.4 ± 0.7 % injected
- Urine ^241Am (^241Am contaminated rats; [2]): 6.7 ± 1.5%
- Cage Wash ^241Am (^241Am contaminated rats; [3]): 1.3 ± 0.5%
- Feces ^241Am (^241Am contaminated rats; [3]): 4.7 ± 2.1%
- Liver burden (^241Am contaminated rats; [3]): 20.9 ± 3.5 % injected
- Total Decorporation (^241Am contaminated rats; [3]): 14.3 ± 3.2 % injected
- Urine ^241Am (^241Am contaminated rats; [3]): 8.4 ± 1.3%
- Cage Wash ^241Am (^241Am contaminated rats; [4]): 2.2 ± 0.8%
- Feces ^241Am (^241Am contaminated rats; [4]): 7.7 ± 2.0%
- Liver burden (^241Am contaminated rats; [4]): 18.6 ± 4.5 % injected
- Total Decorporation (^241Am contaminated rats; [4]): 22.3 ± 3.1 % injected
- Urine ^241Am (^241Am contaminated rats; [4]): 12.4 ± 1.3%
- Cage Wash ^241Am (^241Am contaminated rats; [5]): 2.6 ± 0.8%
- Feces ^241Am (^241Am contaminated rats; [5]): 7.3 ± 1.5%
- Liver burden (^241Am contaminated rats; [5]): 18.9 ± 2.3 % injected
- Total Decorporation (^241Am contaminated rats; [5]): 24.2 ± 3.3 % injected
- Urine ^241Am (^241Am contaminated rats; [5]): 14.3 ± 2.9%
- Cage Wash ^241Am (^241Am contaminated rats; [6]): 3.4 ± 0.3%
- Feces ^241Am (^241Am contaminated rats; [6]): 6.9 ± 1.7%
- Liver burden (^241Am contaminated rats; [6]): 14.5 ± 1.5 % injected
- Total Decorporation (^241Am contaminated rats; [6]): 23.8 ± 3.0 % injected
- Urine ^241Am (^241Am contaminated rats; [6]): 13.5 ± 1.7%
- Cage Wash ^241Am (^241Am contaminated rats; [7]): 4.5 ± 0.7%
- Feces ^241Am (^241Am contaminated rats; [7]): 7.1 ± 1.3%
- Liver burden (^241Am contaminated rats; [7]): 13.7 ± 3.1 % injected
- Total Decorporation (^241Am contaminated rats; [7]): 31.3 ± 5.5 % injected
- Urine ^241Am (^241Am contaminated rats; [7]): 19.8 ± 3.9%
- Efficacy compared with intravenous Ca-DTPA (^241Am contaminated rats; C2E2 1000 mg/kg single oral dose vs Ca-DTPA 13.3 mg/kg iv, no equivalence analysis): comparable, in terms of efficacy, to an intravenous dose of Ca-DTPA (13.3 mg/kg)
- Effect of fasting on efficacy of the C2E2 dose (^241Am contaminated rats; daily urinary and fecal americium, male and female rats): not altered by fasting rats prior to their C2E2 treatment
- Skeletal burden vs untreated controls (statistics) (^241Am contaminated rats; female rats): not significantly changed by C2E2 treatment
- Dose with significantly enhanced decorporation vs untreated controls (^241Am contaminated rats; female rats, p<0.001): above 600 mg/kg
- ^241Am liver burden vs untreated controls (statistics) (^241Am contaminated rats; female rats, p<0.01): Only the reduction in burden following the 1000 mg/kg dose was statistically significant
- Wound site retention of americium vs untreated controls (statistics) (^241Am contaminated rats; male and female rats): did not correspond with a significant change in tissue burden compared to untreated controls at any single C2E2 dose
- Dose with significant reduction of estimated skeletal americium burden vs untreated controls (^241Am contaminated rats; male rats): ≥ 600 mg/kg
- ^241Am liver burden vs untreated controls (statistics) (^241Am contaminated rats; male rats): significantly reduced compared to untreated controls at doses of 200 mg/kg (p<0.05) and 1000 mg/kg (p<0.001)
- Dose with significantly increased total decorporation vs untreated controls (^241Am contaminated rats; male rats, p<0.001): ≥ 600 mg/kg
- Dose proportionality of mean Cmax and AUC0-24 ([1]; 60 to 600 mg/kg/day): not consistently dose proportional
- Maximum-tolerated dose (statement) ([1]; 400 and 600 mg/kg/day, early sacrifices): exceeded the maximum-tolerated dose
- NOAEL at 10 days ([1]; both sexes, Beagle, dog, in vivo, dogs, oral gavage, 10 days, read-out: No observed adverse effect level (NOAEL)): 200 mg/kg/day
- Accumulation after multiple dosing ([1]; dogs, 10 daily doses): No accumulation
- Sex differences in C2E2 mean Cmax and AUC0-24 ([1]; dogs, 60-600 mg/kg/day): less than 2 fold
- Dose at which liver and kidney were target organs of toxicity ([1]; dogs, 10 days): ≥ 400 mg/kg/day
- Dose with clinical chemistry changes consistent with hepatotoxicity ([1]; dogs, 10 days): ≥ 400 mg/kg/day
- Dose with test article related clinical observations (vomitus/emesis, fecal abnormalities) ([1]; dogs, 10 days): ≥ 200 mg/kg/day
- AUC(0-t) ([1]; female, Beagle, dog, females): 184 µg·h/mL
- Cmax ([1]; female, Beagle, dog, females): 72 µg/mL
- Dose with dose-dependent body weight loss ([1]; females): ≥ 400 mg/kg/day
- AUC(0-t) ([1]; male, Beagle, dog, males): 151 µg·h/mL
- Cmax ([1]; male, Beagle, dog, males): 59.5 µg/mL
- Dose with dose-dependent body weight loss ([1]; males): ≥ 200 mg/kg/day
- Dose with hepatocyte degeneration/necrosis and mixed cell inflammation ([1]; males, terminal sacrifice): ≥ 200 mg/kg/day
- Mortality / early sacrifice ([1]; one male 600 mg/kg/day, one male 400 mg/kg/day): Two animals were sacrificed early due to moribund condition
- Essential trace elements in plasma (Cr, Co, Cu, Fe, Mg, Mn, Mo, Se, Zn) ([1]; repeated doses up to 600 mg/kg/day for 10 days): No test article-related depletion of essential trace elements in plasma
